Data as given in PMC8509428, “The Phenoxyalkyltriazine Antagonists for 5-HT6 Receptor with Promising Procognitive and Pharmacokinetic Properties In Vivo in Search for a Novel Therapeutic Approach to Dementia Diseases” (International Journal of Molecular Sciences, 2021).
Several values for one entry are separate records, joined by “and”; a condition that tells them apart may be missing. Identical values can stand only once. Counter-ions that a name gives are not always drawn. Like-named read-outs stand apart in the source and are kept apart here.

What was measured:
[1] = test system: hepatoma HepG2 cell line; conditions: 50 µM; cited from earlier work
[2] = test system: rats; test: Exploratory activity measured in the EPM test; type: in vivo, rat; conditions: for Total Distance / X Ambulation / Y Ambulation: mean ± SEM
Procedure: The experiment was performed using an EPM apparatus (details see above). Total ambulation (the total distance covered by a rat, and ambulation along X and Y axis) was taken to discern drug effects on general activity from those on open-arm exploration, during a 5-min test period (i.e., the time equal to the observation period in the EPM test). Rats’ behavior was not videotaped during the test.

[3] = biological target: T1, human serotonin 5-HT6 receptor (Homo sapiens, UniProt P50406); design: host or cells: 1321N1; conditions: cited from earlier work
[4] = cited from earlier work
[5] = test system: MK-801-induced memory deficits in rats; conditions: cited from earlier work
[6] = biological target: human 5-HT6R; conditions: ± SD; read-out: Ki 5-HT6 (converted); cited from earlier work
[7] = test system: rats; test: Forced swim test (FST); type: in vivo, rat; conditions: for Immobility Time: 60 min before test, mean ± SEM
Procedure: The experiment was carried out according to the method of [54]. On the first day of the experiment, the animals were gently individually placed in Plexiglas cylinders (40 cm high, 18 cm in diameter) containing 15 cm of water maintained at 23–25 °C for 15 min. On removal from water, the rats were placed for 30 min in a Plexiglas box under 60-W bulb to dry. On the following day (24 h later), the rats were replaced in the cylinder and the total duration of immobility was recorded during the whole 5-min test period. The immobility was assigned when no additional activity was observed other than that necessary to keep the rat’s head above the water. Fresh water was used for each animal.

[8] = Bi-directional Caco-2 permeability assay; type: in vitro ADME; conditions: human, pH 7.4, Caco-2, 10 µM, triplicate
[9] = test system: rats; test: Elevated plus-maze (EPM) test; type: in vivo, rat; conditions: for Open Arms % of entries / Open Arms % of time / Open Arms Distance / Open Arms Entries / Open Arms Time: mean ± SEM
Text: The testing procedure was based on a method described by. Plus-maze apparatus (an automated device produced by Campden Instruments Ltd. (Leicestershire, UK) made of durable, high density, non-porous black plastic, elevated to a height of 50 cm, consisted of two open arms (50 × 10 cm) and two closed arms (50 × 10 cm, and 30 cm high walls), arranged so that the two arms of each type were opposite each other. The floor of the plus-maze was made of infrared transparent material what means that there are no visible sensors. Plus-maze apparatus was connected to PC software by control chassis. The experiments were conducted in a darkened room, only the center of the maze was illuminated with low-intensity light (30 lux measured on the maze level). Each rat was gently placed in the center of the plus-maze, facing one of the closed arms, immediately after a 5-min adaptation period in a plastic black box (60 × 60 × 35 cm), to increase the overall activity in the EPM. During a 5-min test period, automated Motor Monitor System recorded the number of entries into the closed and open arms and the time spent in either type of arms. The device counted an effective arm-entry when the four paws of a rat were into any arm. The maze was thoroughly cleaned after each trial. The EPM test is an “unconditional” anxiety-like test based on rodents’ natural aversion to heights and open space.

[10] = biological target: T2, 5-HT2A receptor (Homo sapiens, UniProt P28223); test: Functional assay for 5-HT2A receptor (aequorin, CHO-K1 cells); type: cell-based
T2 construct: expressed in transfected cells; host or cells: CHO-K1

[11] = biological target: T3, 5-HT1AR (Homo sapiens, UniProt P08908); test: Radioligand binding assay (RBA), 5-HT1AR; conditions: ± SD; displacement of [3H]-8-OHDPAT, HEK-293 cells; read-out: Ki 5-HT1A (converted)
T3 construct: expressed in transfected cells; host or cells: HEK-293
T3 sequence (P08908 1-422): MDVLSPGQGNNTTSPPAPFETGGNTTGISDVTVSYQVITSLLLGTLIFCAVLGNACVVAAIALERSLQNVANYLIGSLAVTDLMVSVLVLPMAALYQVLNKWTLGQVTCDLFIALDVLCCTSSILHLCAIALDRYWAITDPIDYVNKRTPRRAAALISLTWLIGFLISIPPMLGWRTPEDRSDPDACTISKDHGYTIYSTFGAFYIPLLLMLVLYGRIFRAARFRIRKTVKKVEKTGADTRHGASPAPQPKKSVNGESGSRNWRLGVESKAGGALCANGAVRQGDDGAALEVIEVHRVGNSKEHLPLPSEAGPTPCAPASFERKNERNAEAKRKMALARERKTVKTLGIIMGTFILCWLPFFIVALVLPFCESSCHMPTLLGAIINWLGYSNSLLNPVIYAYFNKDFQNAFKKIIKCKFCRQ
Procedure: The cells used in the radioligand binding assays receptor 5-HT1A were stably expressed in HEK-293 cells. Transfections were performed with the use of Lipofectamine 2000. The binding procedure was accomplished via the displacement of 2.5 nM [^3H]-8-OHDPAT (135.2 Ci/mmol) for 5-HT1AR. Each compound was tested in triplicate in seven to eight different concentrations (10^−11 to 10^−4 M). The inhibition constants (Ki) were calculated using the Cheng–Prusoff equation [45] and the results are expressed as the mean of at least two independent experiments.

[12] = test system: Salmonella Typhimurium TA100; type: cell-based
[13] = biological target: dopaminergic receptor D2; conditions: ± SD; cited from earlier work
[14] = biological target: T4, CYP3A4 (Homo sapiens, UniProt P08684); test: CYP3A4 P450-Glo assay; type: in vitro ADME; conditions: 10 μM of compound
T4 construct: purchased Promega
Procedure: The luminescent CYP3A4 P450-Glo™ Promega® (Madison, WI, USA) was used for the investigation of potential drug-drug interactions. All assays and protocols were described before. The compounds were tested in triplicate at the final concentrations in the range from 0.01 to 25 μM. The luminescent signal was measured by using a microplate reader EnSpire PerkinElmer (Waltham, MA, USA).

[15] = biological target: 5-HT7R; conditions: ± SD; read-out: Ki 5-HT7 (converted); cited from earlier work
[16] = biological target: T1, human serotonin 5-HT6 receptor; test: Functional assay for 5-HT6 receptor (cAMP, 1321N1 cells)
[17] = biological target: 5-HT6R; conditions: Figure 1; ref 10 (AG-1), 11 (AG-2), 12 (AN-1), 13 (AN-2); cited from earlier work
[18] = test system: rats; conditions: i.p.; ref 10 (AG-1), 11 (AG-2), 12 (AN-1), 13 (AN-2); cited from earlier work
[19] = test system: MK-801-induced memory deficits in rats; test: Novel object recognition (NOR) test, MK-801-induced memory impairment; type: in vivo, rat; conditions: MK-801 0.1 mg/kg i.p. + vehicle; 0.1 mg/kg
Procedure: Five days before the experiment, the rats were transferred to the laboratory, labelled and, thereafter, left to acclimate to the new environment. The animals were handling every five days before experiments to minimize the stress reaction. The protocol was adapted from the original work. The test session comprising of two trials separated by an inter-trial interval (ITI) of 1 h was carried out after 2 days of the training session. During the first trial (familiarization, T1) two identical objects (A1 and A2) were presented in the opposite corners of the open field, approximately 10 cm from the walls. During the second trial (recognition, T2) one of the A objects was replaced by a novel object B, so that the animals were presented with the A = familiar and B = novel objects. Both trials lasted for 3 min and the animals were returned to their home cages after T1.
The objects used were the metal Coca-Cola cans and the glass jars filled with sand. […] The sequence of presentations and the location of the objects were randomly assigned to each rat. After each measurement, the floor was cleaned and dried.
The animals explored the objects by looking, licking, sniffing or touching the object but not when leaning against, standing or sitting on the object. Any rat exploring the two objects for less than 5 s within 3 min of T1 or T2 was eliminated from the study. The exploration time of the objects was measured by a blind experimenter. Based on the exploration time (E) of two objects during T2, the discrimination index (DI) was calculated according to the formula: DI = (EB − EA)/(EA + […]). Using this metric, scores approaching zero reflects no preference while positive values reflect a preference for the novel object and negative numbers reflect a preference for the familiar.
MK-801, used to attenuate learning, was administered at the dose of 0.1 mg/kg (i.p.) 30 min before the familiarization phase (T1), while investigated compounds were given 60 min before T1 session. In such scheme of experiment we could observe the impact of investigated compounds on the one type of rats’ memory—episodic memory and one phase of memory process—[…].
The total exploration time in T2 was used to express the influence of the treatment on the exploratory activity of the animals.

T1 sequence (P50406 whole entry): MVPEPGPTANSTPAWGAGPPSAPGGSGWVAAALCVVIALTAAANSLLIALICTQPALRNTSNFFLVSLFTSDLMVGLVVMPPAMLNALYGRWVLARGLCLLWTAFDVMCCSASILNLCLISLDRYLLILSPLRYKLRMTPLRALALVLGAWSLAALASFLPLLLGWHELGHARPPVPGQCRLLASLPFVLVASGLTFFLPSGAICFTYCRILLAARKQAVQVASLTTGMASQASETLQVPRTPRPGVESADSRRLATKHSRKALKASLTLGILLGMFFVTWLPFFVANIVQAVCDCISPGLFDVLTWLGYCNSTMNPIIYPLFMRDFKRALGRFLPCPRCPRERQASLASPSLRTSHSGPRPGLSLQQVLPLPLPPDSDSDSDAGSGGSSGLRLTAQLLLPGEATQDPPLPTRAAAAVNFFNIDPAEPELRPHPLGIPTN
T2 sequence (P28223 whole entry): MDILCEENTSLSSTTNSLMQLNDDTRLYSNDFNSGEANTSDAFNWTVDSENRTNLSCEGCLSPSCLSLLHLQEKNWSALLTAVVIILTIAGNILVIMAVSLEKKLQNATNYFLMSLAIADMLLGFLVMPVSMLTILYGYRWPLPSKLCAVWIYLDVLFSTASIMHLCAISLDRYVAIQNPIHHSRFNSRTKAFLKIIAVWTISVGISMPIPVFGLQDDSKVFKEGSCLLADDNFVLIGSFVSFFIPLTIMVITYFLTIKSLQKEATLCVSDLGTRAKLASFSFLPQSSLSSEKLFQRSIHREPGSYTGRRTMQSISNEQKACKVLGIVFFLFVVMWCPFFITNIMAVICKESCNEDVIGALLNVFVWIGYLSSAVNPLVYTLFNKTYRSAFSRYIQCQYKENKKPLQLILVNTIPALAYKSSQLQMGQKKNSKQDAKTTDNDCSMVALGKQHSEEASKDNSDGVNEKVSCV
T4 sequence (P08684 whole entry): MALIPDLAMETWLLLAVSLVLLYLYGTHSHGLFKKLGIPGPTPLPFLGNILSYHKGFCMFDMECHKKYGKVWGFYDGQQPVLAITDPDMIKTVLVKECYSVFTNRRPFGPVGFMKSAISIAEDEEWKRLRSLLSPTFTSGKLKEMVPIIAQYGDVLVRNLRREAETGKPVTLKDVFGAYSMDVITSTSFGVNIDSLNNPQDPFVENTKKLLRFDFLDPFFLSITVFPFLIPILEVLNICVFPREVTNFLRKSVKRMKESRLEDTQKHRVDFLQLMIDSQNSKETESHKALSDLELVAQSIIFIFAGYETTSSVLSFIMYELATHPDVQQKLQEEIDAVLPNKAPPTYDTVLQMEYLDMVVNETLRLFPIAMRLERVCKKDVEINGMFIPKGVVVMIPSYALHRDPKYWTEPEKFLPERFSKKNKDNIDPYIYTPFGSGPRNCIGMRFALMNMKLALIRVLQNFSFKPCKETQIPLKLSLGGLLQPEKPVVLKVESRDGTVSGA

## CCC(Oc1cc(Cl)ccc1Cl)c1nc(N)nc(N2CCN(C)CC2)n1 (racemic) [Compound 1, (RS)-4-[1-(2,5-dichlorophenoxy)propyl]-6-(4-methylpiperazin-1-yl)-1,3,5-triazin-2-amine]
[1]
  hepatotoxic effect, HepG2: weak hepatotoxic effect
[2]; 1 mg/kg i.p.
  Total Distance: 4520 ± 168 cm
  X Ambulation: 172 ± 6
  Y Ambulation: 99 ± 6
[2]; 3 mg/kg i.p.
  Total Distance: 3995 ± 218 cm
  X Ambulation: 146 ± 10
  Y Ambulation: 82 ± 7
[2]; 10 mg/kg i.p.
  decrease of total distance: 20%
  Total Distance: 3681 ± 256; p < 0.05 F(3,24) = 4.5291; p < 0.05 cm
  X Ambulation: 140 ± 11 F(3,24) = 3.8035; p < 0.05
  Y Ambulation: 83 ± 8 F(3,24) = 1.9215; NS
[3]; Table S1, compound 1
  5-HT6 Antagonist Mode Emax: 98%
[3]; compound 1, previous functional assays
  5-HT6R Agonist Mode Emax: 4.00 ± 0.00%
[4]; RLMs, 120 min
  number of metabolites formed: six
  parent biotransformed: more than 90%
[4]; compound 1, RLMs
  parent remaining (metabolic stability): < 10%
[5]; i.p.
  effective dose in NOR test: 3 mg/kg
[6]
  Ki: 6 ± 1 nM
[7]; 1 mg/kg i.p.
  Immobility Time: 241.80 ± 18.7 s
[7]; 3 mg/kg
  decrease of immobility time vs vehicle-treated group: about 30%
[7]; 3 mg/kg i.p.
  Immobility Time: 175.29 ± 18.1 s
[7]; 10 mg/kg
  decrease of immobility time vs vehicle-treated group: about 36%
[7]; 10 mg/kg i.p.
  Immobility Time: 163.63 ± 11.2 s
[8]
  Papp A→B at 2 h, 10 µM: 14.2 ± 0.36 ×10⁻⁶ cm/s
  Papp B→A at 2 h, 10 µM: 22.2 ± 1.92 ×10⁻⁶ cm/s
[9]; 1 mg/kg i.p.
  Open Arms % of entries: 32.59 ± 4.23%
  Open Arms % of time: 25.76 ± 6.11%
  Open Arms Distance: 788 ± 175 cm
  Open Arms Entries: 9.88 ± 1.99
  Open Arms Time: 58.90 ± 14.20 s
[9]; 3 mg/kg i.p.
  Open Arms % of entries: 29.49 ± 3.48%
  Open Arms % of time: 10.27 ± 2.05%
  Open Arms Distance: 307 ± 78 cm
  Open Arms Entries: 6.14 ± 0.77
  Open Arms Time: 24.81 ± 5.24 s
[9]; 10 mg/kg i.p.
  Open Arms % of entries: 42.23 ± 9.09%
  Open Arms % of time: 18.34 ± 4.19%
  Open Arms Distance: 538 ± 104 cm
  Open Arms Entries: 7.20 ± 1.66
  Open Arms Time: 43.36 ± 9.08 s
[9]; i.p., 60 min before test
  anxiolytic-like activity in EPM test: did not show anxiolytic-like activity
[10]; Table S2, read-out: 5-HT2A Antagonist mode Emax
  Emax: 0%
[10]; read-out: 5-HT2AR Agonist Mode Emax
  Emax: 58 ± 9.7%
[11]
  Ki: 4760 ± 1190 nM
[12]; 1 µM
  Binomial B-Value: 0.0707
  Number of Revertants ± SD: 2.00 ± 1.00
[12]; 10 µM
  Binomial B-Value: 0.0707
  Number of Revertants ± SD: 2.00 ± 1.00
[13]
  Ki: 320 ± 19 nM
[14]
  CYP3A4 activity remaining: 44%
[15]
  Ki: 5710 ± 967 nM

## COc1ccc(NS(=O)(=O)c2ccc(I)cc2)cc1N1CCN(C)CC1 [SB258585]
[16]; Table S1, % of reference antagonist (SB258585 10^-5 M)
  5-HT6 Antagonist Mode Emax: 100%
[16]; ± SEM, % of maximal agonist response (Serotonin 10^−5 M)
  5-HT6R Agonist Mode Emax: 2.00 ± 0.50%

## CN(C)CCn1cnc2ccc(NS(=O)(=O)c3ccc4c(Cl)cccc4c3)cc21 [AN-2]
[17]
  Ki: 9 nM
[18]
  dose with procognitive effect in the NOR test: 1 mg/kg

## C[C@]12N[C@H](Cc3ccccc31)c1ccccc12 [MK-801, MK-801 maleate, reference compound]
[5]; MK-801 0.1 mg/kg i.p. + vehicle
  Discrimination Index: −0.07 ± 0.01
[19]
  Total Exploratory Time in T2 Session: 42.00 ± 3.13 s and 47.07 ± 3.89 s

## NCCc1cn(S(=O)(=O)c2c(Cl)nc3sccn23)c2ccccc12 [AG-2]
[18]
  dose with procognitive effect in the NOR test: 3 mg/kg

## CN(C)CCc1c[nH]c2ccc(NS(=O)(=O)c3c(Cl)nc4sccn34)cc12 [AG-1]
[18]
  dose with procognitive effect in the NOR test: 2.5 mg/kg

## COc1ccc2c(c1)c(C1=CCNCC1)cn2S(=O)(=O)c1cncc2ccccc12 [AN-1]
[17]
  Ki: 3 nM
[18]
  dose with procognitive effect in the NOR test: 1 mg/kg
